Where a name gives a salt, the structure may show the parent alone.
Molecular target: T1, human mAChR M4 (Homo sapiens, UniProt P08173)
T1 sequence (P08173 1-479): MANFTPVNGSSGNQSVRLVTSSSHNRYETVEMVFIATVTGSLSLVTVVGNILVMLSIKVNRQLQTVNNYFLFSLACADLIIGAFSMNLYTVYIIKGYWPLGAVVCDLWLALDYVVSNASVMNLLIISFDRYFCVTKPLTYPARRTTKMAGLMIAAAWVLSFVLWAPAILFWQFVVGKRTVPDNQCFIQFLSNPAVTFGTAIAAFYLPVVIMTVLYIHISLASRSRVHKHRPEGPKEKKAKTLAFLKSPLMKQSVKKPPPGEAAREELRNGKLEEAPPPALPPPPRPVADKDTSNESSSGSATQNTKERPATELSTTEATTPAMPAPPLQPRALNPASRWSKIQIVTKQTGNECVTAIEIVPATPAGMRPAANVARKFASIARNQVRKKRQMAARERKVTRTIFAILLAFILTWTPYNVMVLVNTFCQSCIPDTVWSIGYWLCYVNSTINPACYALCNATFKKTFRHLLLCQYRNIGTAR
Test: mAChR M4 cell-based functional assay (calcium flux), human M4
Conditions: Table 10; for EC50: Human M4 EC50 (nM), calcium flux, PAM activity with EC20 acetylcholine; for Emax: % ACh maximum at 30 μM

SMILES | EC50 | Emax
Cc1nnc2sc3c(NCc4ccc(N5CCN(C)CC5)cc4)ncnc3c2c1C [Compound 111, 3,4-dimethyl-N-[[4-(4-methylpiperazin-1-yl)phenyl]methyl] pyrimido[4′,5′:4,5] thieno[2,3-c] pyridazin-8-amine hydrochloride] | 126 nM | 70.5%
Cc1nnc2sc3c(NCc4ccc(C(C)(C)O)c(F)c4)ncnc3c2c1C [Compound 112, 2-[4-[[(3,4-dimethylpyrimido [4′,5′:4,5]thieno[2,3-c]pyridazin-8-yl)amino]methyl]-2-fluoro-phenyl]propan-2-ol] | 255 nM | 74.6%
Cc1nnc2sc3c(NCc4ccc(C(C)(O)C(F)(F)F)cc4)ncnc3c2c1C (stereo not drawn) [Compound 113, 2-[4-[[(3,4-dimethylpyrimido [4′,5′:4,5]thieno[2,3-c]pyridazin-8-yl)amino]methyl]phenyl]-1,1,1-trifluoro-propan-2-ol] |  | 73.8%
Cc1nnc2sc3c(NCc4ccc(C5(O)CCC5)cc4)ncnc3c2c1C [Compound 114, 1-[4-[[(3,4-dimethylpyrimido [4′,5′:4,5]thieno[2,3-c]pyridazin-8-yl)amino]methyl]phenyl]cyclobutanol] | 127 nM | 69.4%
CCC(C)(O)c1ccc(CNc2ncnc3c2sc2nnc(C)c(C)c23)c(F)c1 (stereo not drawn) [Compound 115, 2-[4-[[(3,4-dimethylpyrimido [4′,5′:4,5]thieno[2,3-c]pyridazin-8-yl)amino]methyl]-3-fluoro-phenyl]butan-2-ol] | 916 nM | 72.3%
CCC(C)(O)c1ccc(CNc2ncnc3c2sc2nnc(C)c(C)c23)cc1 (stereo not drawn) [Compound 116, 2-[4-[[(3,4-dimethylpyrimido [4′,5′:4,5]thieno[2,3-c]pyridazin-8-yl)amino]methyl]phenyl]butan-2-ol] | 151 nM | 50%
Cc1nnc2sc3c(NCc4ccc(CN5CCCC5C(C)(C)O)cc4)ncnc3c2c1C (stereo not drawn) [Compound 117, 2-[1-[[4-[[(3,4-dimethylpyrimido [4′,5′:4,5]thieno[2,3-c]pyridazin-8-yl)amino]methyl]phenyl]methyl]pyrrolidin-2-yl]propan-2-ol] | 49.1 nM | 108%
Cc1nnc2sc3c(NCc4ccc(N5CCNCC5)cc4)ncnc3c2c1C [Compound 118, 3,4-dimethyl-N-[(4-piperazin-1-ylphenyl)methyl]pyrimido [4′,5′:4,5]thieno[2,3-c] pyridazin-8-amine] | 69 nM | 101%
Cc1nnc2sc3c(NC4CC4c4ccc(F)c(F)c4)ncnc3c2c1C (stereo not drawn) [Compound 119, N-[2-(3,4-difluorophenyl)cyclopropyl]-3,4-dimethyl-pyrimido [4′,5′:4,5]thieno[2,3-c] pyridazin-8-amine] | 941 nM | 98.4%
COCCN1CCN(c2ccc(CNc3ncnc4c3sc3nnc(C)c(C)c34)cc2)CC1 [Compound 120, N-[[4-[4-(2-methoxyethyl)piperazin-1-yl]phenyl]methyl]-3,4-dimethyl-pyrimido [4′,5′:4,5]thieno[2,3-c] pyridazin-8-amine] | 226 nM | 100%
COc1cc(F)c(CNc2ncnc3c2sc2nnc(C)c(C)c23)c(F)c1 [Compound 121, N-[(2,6-difluoro-4-methoxy-phenyl)methyl]-3,4-dimethyl-pyrimido [4′,5′:4,5]thieno[2,3-c] pyridazin-8-amine] | 579 nM | 100%
Cc1nnc2sc3c(NCc4ccc(C(=O)N5CCCC5)cc4)ncnc3c2c1C [Compound 122, [4-[[(3,4-dimethylpyrimido [4′,5′:4,5]thieno[2,3-c]pyridazin-8-yl)amino]methyl]phenyl]-pyrrolidin-1-yl-methanone] | 482 nM | 83.7%
Cc1nnc2sc3c(NCc4ccc(C(=O)N5CCOCC5)cc4)ncnc3c2c1C [Compound 123, [4-[[(3,4-dimethylpyrimido [4′,5′:4,5]thieno[2,3-c]pyridazin-8-yl)amino]methyl]phenyl]-morpholino-methanone] | 548 nM | 87.2%
Cc1nnc2sc3c(NCc4ccc(C(=O)N5CC6(COC6)C5)cc4)ncnc3c2c1C [Compound 124, [4-[[(3,4-dimethylpyrimido [4′,5′:4,5]thieno[2,3-c]pyridazin-8-yl)amino]methyl]phenyl]-(2-oxa-6-azaspiro[3.3]heptan-6-yl)methanone] | 288 nM | 84.8%
Cc1nnc2sc3c(NCc4ccc(C(=O)N5CCCCC5)cc4)ncnc3c2c1C [Compound 125, [4-[[(3,4-dimethylpyrimido [4′,5′:4,5]thieno[2,3-c]pyridazin-8-yl)amino]methyl]phenyl]-(1-piperidyl)methanone] | 574 nM | 93.1%
Cc1nnc2sc3c(NCc4ccc(C(=O)N5CC6CC6C5)cc4)ncnc3c2c1C (stereo not drawn) [Compound 126, 3-azabicyclo[3.1.0] hexan-3-yl-[4-[[(3,4-dimethylpyrimido [4′,5′:4,5]thieno[2,3-c]pyridazin-8-yl)amino]methyl]phenyl] methanone] | 481 nM | 84.2%

Results, then the compound that gave them:

EC50 | Emax | SMILES
463 nM | 88.4% | COCC1CN(C(=O)c2ccc(CNc3ncnc4c3sc3nnc(C)c(C)c34)cc2)C1 [Compound 127, [4-[[(3,4-dimethylpyrimido [4′,5′:4,5]thieno[2,3-c]pyridazin-8-yl)amino]methyl]phenyl]-[3-(methoxymethyl)azetidin-1-yl] methanone]
529 nM | 92% | Cc1nnc2sc3c(NCc4ccc(C(=O)N5CC[C@H](F)C5)cc4)ncnc3c2c1C [Compound 128, [4-[[(3,4-dimethylpyrimido [4′,5′:4,5]thieno[2,3-c]pyridazin-8-yl)amino]methyl]phenyl]-[(3S)-3-fluoropyrrolidin-1-yl]methanone]
446 nM | 90.6% | Cc1nnc2sc3c(NCc4ccc(C(=O)N5CC[C@@H](F)C5)cc4)ncnc3c2c1C [Compound 129, [4-[[(3,4-dimethylpyrimido [4′,5′:4,5]thieno[2,3-c]pyridazin-8-yl)amino]methyl]phenyl]-[(3R)-3-fluoropyrrolidin-1-yl]methanone]
724 nM | 93.2% | Cc1nnc2sc3c(NCc4ccc(C(=O)N5CCC(F)(F)CC5)cc4)ncnc3c2c1C [Compound 130, (4,4-difluoro-1-piperidyl)-[4-[[(3,4-dimethylpyrimido [4′,5′:4,5]thieno[2,3-c]pyridazin-8-yl)amino]methyl]phenyl]methanone]
276 nM | 88.4% | Cc1nnc2sc3c(NCc4ccc(C(=O)N5CCC5)cc4)ncnc3c2c1C [Compound 131, azetidin-1-yl-[4-[[(3,4-dimethylpyrimido [4′,5′:4,5]thieno[2,3-c]pyridazin-8-yl)amino]methyl]phenyl]methanone]
309 nM | 90.4% | Cc1nnc2sc3c(NCc4ccc(C(=O)N(C)C5CC5)cc4)ncnc3c2c1C [Compound 132, N-cyclopropyl-4-[[(3,4-dimethylpyrimido [4′,5′:4,5]thieno[2,3-c]pyridazin-8-yl)amino]methyl]-N-methyl-benzamide]
100 nM | 86% | Cc1nnc2sc3c(NCc4ccc(C(=O)NC5CC5)cc4)ncnc3c2c1C [Compound 133, N-cyclopropyl-4-[[(3,4-dimethylpyrimido [4′,5′:4,5]thieno[2,3-c]pyridazin-8-yl)amino]methyl]benzamide]
469 nM | 91.8% | Cc1nnc2sc3c(NCc4ccc(C(=O)N5CCC(F)(F)C5)cc4)ncnc3c2c1C [Compound 134, (3,3-difluoropyrrolidin-1-yl)-[4-[[(3,4-dimethylpyrimido [4′,5′:4,5]thieno[2,3-c]pyridazin-8-yl)amino]methyl]phenyl]methanone]
139 nM | 87.8% | COc1ccc(CNc2ncnc3c2sc2nnc(C)c(C)c23)cc1 [Compound 135, N-[(4-methoxyphenyl)methyl]-3,4-dimethyl-pyrimido[4′,5′:4,5]thieno [2,3-c]pyridazin-8-amine]
388 nM | 96.8% | COc1c(F)cc(CNc2ncnc3c2sc2nnc(C)c(C)c23)cc1F [Compound 136, N-[(3,5-difluoro-4-methoxy-phenyl)methyl]-3,4-dimethyl-pyrimido [4′,5′:4,5]thieno[2,3-c] pyridazin-8-amine]
222 nM | 80.6% | Cc1nnc2sc3c(N(C)Cc4ccc(C(C)(C)O)cc4)ncnc3c2c1C [Compound 137, 2-[4-[[(3,4-dimethylpyrimido [4′,5′:4,5]thieno[2,3-c]pyridazin-8-yl)-methyl-amino]methyl]phenyl] propan-2-ol]
3090 nM | 85% | Cc1nnc2sc3c(NCC45CC(C(C)(C)O)(C4)C5)ncnc3c2c1C [Compound 138, 2-[1-[[(3,4-dimethylpyrimido [4′,5′:4,5]thieno[2,3-c]pyridazin-8-yl)amino]methyl]-3-bicyclo[1.1.1]pentanyl]propan-2-ol]
422 nM | 67.6% | Cc1nnc2sc3c(NC45CC(F)(C4)C5)ncnc3c2c1C [Compound 139, N-(3-fluoro-1-bicyclo [1.1.1]pentanyl)-3,4-dimethyl-pyrimido [4′,5′:4,5]thieno[2,3-c]pyridazin-8-amine]
